Assays:
[1] = target: butyrylcholinesterase (BuChE, from equine serum) (Equus caballus, UniProt P81908); assay: biochemical; settings: eqBuChE; mean ± spread
AChE (from electric eel) = target: T1, AChE (from electric eel) (Electrophorus electricus, UniProt O42275); assay: biochemical; settings: eeAChE; for IC50: mean ± spread; for inhibition at 100 µM: compound at 100 μM, read-out: AChE inhibition rate (%) in 100 μM
T1 construct: purchased Sigma-Aldrich
T1 sequence (O42275 24-633): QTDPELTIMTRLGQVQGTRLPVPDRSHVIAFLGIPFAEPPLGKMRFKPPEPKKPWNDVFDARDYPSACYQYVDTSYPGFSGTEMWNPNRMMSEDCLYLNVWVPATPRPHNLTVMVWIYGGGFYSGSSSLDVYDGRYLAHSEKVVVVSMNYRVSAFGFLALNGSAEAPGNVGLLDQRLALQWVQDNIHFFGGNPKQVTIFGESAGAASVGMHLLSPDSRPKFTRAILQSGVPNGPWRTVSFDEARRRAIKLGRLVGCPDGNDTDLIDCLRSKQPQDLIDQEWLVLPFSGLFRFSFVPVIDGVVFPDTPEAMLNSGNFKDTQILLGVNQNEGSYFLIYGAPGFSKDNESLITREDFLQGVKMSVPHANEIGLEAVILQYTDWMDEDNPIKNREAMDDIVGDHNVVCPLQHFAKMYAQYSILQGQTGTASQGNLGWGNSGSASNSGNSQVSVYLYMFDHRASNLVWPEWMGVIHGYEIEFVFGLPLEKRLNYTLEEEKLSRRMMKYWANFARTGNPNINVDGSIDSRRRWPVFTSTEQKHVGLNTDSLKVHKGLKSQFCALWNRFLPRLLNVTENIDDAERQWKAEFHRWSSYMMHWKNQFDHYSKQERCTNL

Chain of butyrylcholinesterase (BuChE, from equine serum) (P81908 whole entry): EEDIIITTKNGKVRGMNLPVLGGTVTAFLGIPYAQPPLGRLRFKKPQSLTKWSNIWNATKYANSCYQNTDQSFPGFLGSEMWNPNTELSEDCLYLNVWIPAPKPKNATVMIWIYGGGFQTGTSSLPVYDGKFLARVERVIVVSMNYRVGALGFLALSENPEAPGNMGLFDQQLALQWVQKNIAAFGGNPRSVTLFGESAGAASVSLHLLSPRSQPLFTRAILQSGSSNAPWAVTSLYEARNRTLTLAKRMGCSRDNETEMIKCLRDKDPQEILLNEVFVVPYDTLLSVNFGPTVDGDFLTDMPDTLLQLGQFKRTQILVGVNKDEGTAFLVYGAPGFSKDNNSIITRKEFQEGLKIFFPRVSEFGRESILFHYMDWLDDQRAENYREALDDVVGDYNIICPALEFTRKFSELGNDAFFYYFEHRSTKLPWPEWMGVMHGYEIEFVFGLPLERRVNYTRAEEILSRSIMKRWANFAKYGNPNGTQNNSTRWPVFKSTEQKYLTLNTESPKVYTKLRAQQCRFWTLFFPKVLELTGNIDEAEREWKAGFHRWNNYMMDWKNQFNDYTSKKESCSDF

For COc1ccc2[nH]c3c4c(c(/C=C/C(=O)NCC5CCN(Cc6ccccc6Cl)CC5)cc3c2c1)OC(C)(C)C=C4 [Compound 6bj, (E)-N-((1-(2-Chlorobenzyl)piperidin-4-yl)methyl)-3-(8-methoxy-3,3-dimethyl-3,11-dihydropyrano[3,2-a]carbazol-5-yl)acrylamide], which IC50 [1] is on record?
Its IC50 is 37.6 ± 0.56 µM.

What about the IC50 (AChE (from electric eel)) of the same compound?
Its IC50 is 91.1 ± 4.41 µM.

For CC1(C)C=Cc2c(c(/C=C/C(=O)NCCC3CCN(Cc4ccccc4F)CC3)cc3c2[nH]c2ccc(C(C)(C)C)cc23)O1 [Compound 6cb, (E)-3-(8-(tert-Butyl)-3,3-dimethyl-3,11-dihydropyrano[3,2-a]carbazol-5-yl)-N-(2-(1-(2-fluorobenzyl)piperidin-4-yl)ethyl)acrylamide], which IC50 [1] is on record?
The IC50 was 19.1 ± 2.04 µM.

And the IC50 (AChE (from electric eel))?
Its IC50 is 10.7 ± 0.2 µM.

Which results are given for CC1(C)C=Cc2c(c(/C=C/C(=O)NCCC3CCN(Cc4ccccc4Cl)CC3)cc3c2[nH]c2ccc(C(C)(C)C)cc23)O1 [Compound 6cd, (E)-3-(8-(tert-Butyl)-3,3-dimethyl-3,11-dihydropyrano[3,2-a]carbazol-5-yl)-N-(2-(1-(2-chlorobenzyl)piperidin-4-yl)ethyl)acrylamide]?
IC50 [1]: 17.3 ± 4.82 µM; IC50 (AChE (from electric eel)): 17 ± 1.51 µM

Which IC50 [1] does the source give for CC1(C)C=Cc2c(c(/C=C/C(=O)NC3CCN(Cc4ccccc4F)CC3)cc3c2[nH]c2ccc(C(C)(C)C)cc23)O1 [Compound 6ab, (E)-3-(8-(tert-Butyl)-3,3-dimethyl-3,11-dihydropyrano[3,2-a]carbazol-5-yl)-N-(1-(2-fluorobenzyl)piperidin-4-yl)acrylamide] here?
Its IC50 is 35.9 ± 5.13 µM.

And the inhibition at 100 µM (AChE (from electric eel))?
The inhibition at 100 µM was 36.16 ± 0.31%.

COc1ccc2[nH]c3c4c(c(/C=C/C(=O)NCC5CCN(Cc6ccccc6F)CC5)cc3c2c1)OC(C)(C)C=C4 [Compound 6bh, (E)-N-((1-(2-Fluorobenzyl)piperidin-4-yl)methyl)-3-(8-methoxy-3,3-dimethyl-3,11-dihydropyrano[3,2-a]carbazol-5-yl)acrylamide] was tested. Which IC50 [1] did it give?
Its IC50 is 31.5 ± 3.88 µM.

What about the IC50 (AChE (from electric eel)) of the same compound?
Its IC50 is 23.6 ± 8.31 µM.

For COc1ccc2[nH]c3c4c(c(/C=C/C(=O)NCCC5CCN(Cc6ccccc6Cl)CC5)cc3c2c1)OC(C)(C)C=C4 [Compound 6ch, (E)-N-(2-(1-(2-Chlorobenzyl)piperidin-4-yl)ethyl)-3-(8-methoxy-3,3-dimethyl-3,11-dihydropyrano[3,2-a]carbazol-5-yl)acrylamide], which IC50 [1] is on record?
The IC50 was 24.2 ± 4.78 µM.

What about the IC50 (AChE (from electric eel)) of the same compound?
The IC50 was 24.6 ± 2.1 µM.

How did the IC50 [1] turn out when COc1ccc2[nH]c3c4c(c(C=O)cc3c2c1)OC(C)(C)C=C4 [Clau F, Claulansine F, reference compound] was run?
The IC50 was 64.3 ± 7.52 µM.

What about the inhibition at 100 µM (AChE (from electric eel)) of the same compound?
The inhibition at 100 µM was 28.2 ± 2.11%.

With COc1ccc2[nH]c3c4c(c(/C=C/C(=O)NC5CCN(Cc6ccccc6F)CC5)cc3c2c1)OC(C)(C)C=C4 [Compound 6af, (E)-N-(1-(2-Fluorobenzyl)piperidin-4-yl)-3-(8-methoxy-3,3-dimethyl-3,11-dihydropyrano[3,2-a]carbazol-5-yl)acrylamide] as the compound, how does the IC50 [1] read?
The IC50 was 24.5 ± 1.94 µM.

What about the inhibition at 100 µM (AChE (from electric eel)) of the same compound?
The inhibition at 100 µM was 34.2 ± 10.7%.

For COc1ccc2[nH]c3c4c(c(/C=C/C(=O)NCC5CCN(Cc6ccccc6C)CC5)cc3c2c1)OC(C)(C)C=C4 [Compound 6bi, (E)-3-(8-Methoxy-3,3-dimethyl-3,11-dihydropyrano[3,2-a]carbazol-5-yl)-N-((1-(2-methylbenzyl)piperidin-4-yl)methyl)acrylamide], which IC50 [1] is on record?
Its IC50 is 32.8 ± 0.5 µM.

What about the IC50 (AChE (from electric eel)) of the same compound?
The IC50 was 58.4 ± 1.79 µM.

What does the source list for COc1ccc2[nH]c3c4c(c(/C=C/C(=O)NCCC5CCN(Cc6ccccc6F)CC5)cc3c2c1)OC(C)(C)C=C4 [Compound 6cf, (E)-N-(2-(1-(2-Fluorobenzyl)piperidin-4-yl)ethyl)-3-(8-methoxy-3,3-dimethyl-3,11-dihydropyrano[3,2-a]carbazol-5-yl)acrylamide]?
IC50 [1]: 18 ± 3.35 µM; IC50 (AChE (from electric eel)): 54.8 ± 7.96 µM

What does the source list for COc1ccc2[nH]c3c4c(c(/C=C/C(=O)NCCC5CCN(Cc6ccccc6C)CC5)cc3c2c1)OC(C)(C)C=C4 [Compound 6cg, (E)-3-(8-Methoxy-3,3-dimethyl-3,11-dihydropyrano[3,2-a]carbazol-5-yl)-N-(2-(1-(2-methylbenzyl)piperidin-4-yl)ethyl)acrylamide]?
IC50 [1]: 26.7 ± 1.76 µM; IC50 (AChE (from electric eel)): 73 ± 1.93 µM

How did the IC50 [1] turn out when COc1ccc2[nH]c3c4c(c(/C=C/C(=O)NCC5CCN(Cc6ccccc6)CC5)cc3c2c1)OC(C)(C)C=C4 [Compound 6bg, (E)-N-((1-Benzylpiperidin-4-yl)methyl)-3-(8-methoxy-3,3-dimethyl-3,11-dihydropyrano[3,2-a]carbazol-5-yl)acrylamide] was run?
The IC50 was 74.9 ± 3.21 µM.

And the IC50 (AChE (from electric eel))?
The IC50 was 27.7 ± 5.15 µM.

CC1(C)C=Cc2c(c(/C=C/C(=O)NC3CCN(Cc4ccccc4)CC3)cc3c2[nH]c2ccc(C(C)(C)C)cc23)O1 [Compound 6aa, (E)-N-(1-Benzylpiperidin-4-yl)-3-(8-(tert-butyl)-3,3-dimethyl-3,11-dihydropyrano[3,2-a]carbazol-5-yl)acrylamide] was tested. Which IC50 [1] did it give?
Its IC50 is 22.9 ± 1.14 µM.

What about the IC50 (AChE (from electric eel)) of the same compound?
Its IC50 is 51.9 ± 2.24 µM.

How did the IC50 [1] turn out when CC1(C)C=Cc2c(c(/C=C/C(=O)NCCC3CCN(Cc4ccccc4)CC3)cc3c2[nH]c2ccc(C(C)(C)C)cc23)O1 [Compound 6ca, (E)-N-(2-(1-Benzylpiperidin-4-yl)ethyl)-3-(8-(tert-butyl)-3,3-dimethyl-3,11-dihydropyrano[3,2-a]carbazol-5-yl)acrylamide] was run?
Its IC50 is 23.4 ± 0.95 µM.

What about the IC50 (AChE (from electric eel)) of the same compound?
The IC50 was 9 ± 0.86 µM.

Which results are given for Cc1ccccc1CN1CCC(CCNC(=O)/C=C/c2cc3c([nH]c4ccc(C(C)(C)C)cc43)c3c2OC(C)(C)C=C3)CC1 [Compound 6cc, (E)-3-(8-(tert-Butyl)-3,3-dimethyl-3,11-dihydropyrano[3,2-a]carbazol-5-yl)-N-(2-(1-(2-methylbenzyl)piperidin-4-yl)ethyl)acrylamide]?
IC50 [1]: 33.8 ± 0.51 µM; IC50 (AChE (from electric eel)): 14.3 ± 0.36 µM

With CC1(C)C=Cc2c(c(/C=C/C(=O)NC3CCN(Cc4ccccc4Cl)CC3)cc3c2[nH]c2ccc(C(C)(C)C)cc23)O1 [Compound 6ad, (E)-3-(8-(tert-Butyl)-3,3-dimethyl-3,11-dihydropyrano[3,2-a]carbazol-5-yl)-N-(1-(2-chlorobenzyl)piperidin-4-yl)acrylamide] as the compound, how does the IC50 [1] read?
Its IC50 is 38.8 ± 2.48 µM.

What about the inhibition at 100 µM (AChE (from electric eel)) of the same compound?
Its inhibition at 100 µM is 42.5 ± 6.12%.

For COc1ccc2[nH]c3c4c(c(/C=C/C(=O)NC5CCN(Cc6ccccc6)CC5)cc3c2c1)OC(C)(C)C=C4 [Compound 6ae, (E)-N-(1-Benzylpiperidin-4-yl)-3-(8-methoxy-3,3-dimethyl-3,11-dihydropyrano[3,2-a]carbazol-5-yl)acrylamide], which IC50 [1] is on record?
The IC50 was 69.1 ± 8.51 µM.

What about the inhibition at 100 µM (AChE (from electric eel)) of the same compound?
Its inhibition at 100 µM is 20.4 ± 7.35%.

What does the source list for COc1ccc2[nH]c3c4c(c(/C=C/C(=O)NCCC5CCN(Cc6ccccc6)CC5)cc3c2c1)OC(C)(C)C=C4 [Compound 6ce, (E)-N-(2-(1-Benzylpiperidin-4-yl)ethyl)-3-(8-methoxy-3,3-dimethyl-3,11-dihydropyrano[3,2-a]carbazol-5-yl)acrylamide]?
IC50 [1]: 26.4 ± 1.4 µM; IC50 (AChE (from electric eel)): 41.7 ± 1.22 µM

COc1ccc2[nH]c3c4c(c(/C=C/C(=O)NC5CCN(Cc6ccccc6Cl)CC5)cc3c2c1)OC(C)(C)C=C4 [Compound 6ah, (E)-N-(1-(2-Chlorobenzyl)piperidin-4-yl)-3-(8-methoxy-3,3-dimethyl-3,11-dihydropyrano[3,2-a]carbazol-5-yl)acrylamide] was tested. Which IC50 [1] did it give?
Its IC50 is 18 ± 2.27 µM.

And the inhibition at 100 µM (AChE (from electric eel))?
Its inhibition at 100 µM is 40 ± 1.4%.

For Cc1ccccc1CN1CCC(NC(=O)/C=C/c2cc3c([nH]c4ccc(C(C)(C)C)cc43)c3c2OC(C)(C)C=C3)CC1 [Compound 6ac, (E)-3-(8-(tert-Butyl)-3,3-dimethyl-3,11-dihydropyrano[3,2-a]carbazol-5-yl)-N-(1-(2-methylbenzyl)piperidin-4-yl)acrylamide], which IC50 [1] is on record?
Its IC50 is 34.3 ± 0.69 µM.

And the inhibition at 100 µM (AChE (from electric eel))?
The inhibition at 100 µM was 50.9 ± 2.76%.

For CC1(C)C=Cc2c(c(/C=C/C(=O)NCC3CCN(Cc4ccccc4)CC3)cc3c2[nH]c2ccc(C(C)(C)C)cc23)O1 [Compound 6ba, (E)-N-((1-Benzylpiperidin-4-yl)methyl)-3-(8-(tert-butyl)-3,3-dimethyl-3,11-dihydropyrano[3,2-a]carbazol-5-yl)acrylamide], which IC50 [1] is on record?
Its IC50 is 12.3 ± 0.66 µM.

And the IC50 (AChE (from electric eel))?
Its IC50 is 4.62 ± 0.28 µM.

What does the source list for COc1ccc2[nH]c3c4c(c(/C=C/C(=O)NC5CCN(Cc6ccccc6C)CC5)cc3c2c1)OC(C)(C)C=C4 [Compound 6ag, (E)-3-(8-Methoxy-3,3-dimethyl-3,11-dihydropyrano[3,2-a]carbazol-5-yl)-N-(1-(2-methylbenzyl)piperidin-4-yl)acrylamide]?
IC50 [1]: 26.4 ± 4.51 µM; inhibition at 100 µM (AChE (from electric eel)): 36.8 ± 1.25%

Which results are given for Cc1ccccc1CN1CCC(CNC(=O)/C=C/c2cc3c([nH]c4ccc(C(C)(C)C)cc43)c3c2OC(C)(C)C=C3)CC1 [Compound 6bc, (E)-3-(8-(tert-Butyl)-3,3-dimethyl-3,11-dihydropyrano[3,2-a]carbazol-5-yl)-N-((1-(2-methylbenzyl)piperidin-4-yl)methyl)acrylamide]?
IC50 [1]: 19 ± 0.94 µM; IC50 (AChE (from electric eel)): 4.26 ± 0.22 µM

Reference: article PMC7957565 (Molecules, 2021)
